Laboratory results published in patent US7157491B2, “Aryl-carbaldehyde oxime derivatives and their use as estrogenic agents” (Wyeth, priority 2003, dated 2007).

Legend:
[1] = molecular target: T1, human ERα (Homo sapiens, UniProt P03372); assay: Competition with [3H]-17β-estradiol for binding to ERα ligand binding domain (E. coli lysate); conditions: 2 nM [3H]-17β-estradiol, 5-15 hours at room temperature; concentration that decreases total 17β-estradiol binding by 50%
T1 construct: made in house; host or cells: E. coli
T1 sequence (P03372 311-547 limits assumed): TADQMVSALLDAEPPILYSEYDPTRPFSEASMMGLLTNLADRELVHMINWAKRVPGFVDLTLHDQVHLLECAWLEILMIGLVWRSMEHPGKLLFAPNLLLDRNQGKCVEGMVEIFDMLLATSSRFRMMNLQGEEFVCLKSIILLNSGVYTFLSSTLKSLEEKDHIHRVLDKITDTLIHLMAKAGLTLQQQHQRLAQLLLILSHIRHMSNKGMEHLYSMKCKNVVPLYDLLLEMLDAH
Protocol: (§1) Representative examples of the invention were evaluated for their ability to compete with 17β-estradiol for both ERα and ERβ. This test procedure provides the methodology for one to determine whether a particular compound binds to the estrogen receptor (and is therefore “estrogenic”) and whether there is selectivity for ERα or ERβ. […] 17β-estradiol is included as a standard reference for comparison. The procedure used is briefly described below. A crude lysate of E. coli expressing the estrogen receptor ligand binding domains (D, E, & F) of human ERα or ERβ was prepared. Both receptors and compounds were diluted in 1× Dulbecco's PBS (DPBS) supplemented with 1 mM EDTA. Using a high binding masked microtiter plate, 100 uL of receptor (1 uG/well) was combined with 2 nM [^3H]-17β-estradiol and various concentrations of compound. After between 5 and 15 hours at room temperature, the plates were washed with DPBS/1 mM EDTA and bound radioactivity determined by liquid scintillation counting.

[2] = molecular target: T2, human ERβ (Homo sapiens, UniProt Q92731); assay: Competition with [3H]-17β-estradiol for binding to ERβ ligand binding domain (E. coli lysate); conditions: 2 nM [3H]-17β-estradiol, 5-15 hours at room temperature; concentration that decreases total 17β-estradiol binding by 50%
T2 construct: made in house; host or cells: E. coli
T2 sequence (Q92731 264-498 limits assumed): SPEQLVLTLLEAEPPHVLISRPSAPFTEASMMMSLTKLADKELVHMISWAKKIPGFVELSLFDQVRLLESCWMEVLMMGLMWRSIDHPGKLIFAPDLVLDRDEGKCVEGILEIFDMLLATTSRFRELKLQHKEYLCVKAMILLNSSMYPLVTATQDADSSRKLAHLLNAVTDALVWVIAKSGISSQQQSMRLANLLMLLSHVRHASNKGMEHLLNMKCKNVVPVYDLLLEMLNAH
Protocol: as §1

Row | SMILES | melting point | IC50 [1] | IC50 [2]
1 | ON=Cc1ccc(-c2ccc(O)cc2)c2ccsc12 [Example 12, 4-(4-Hydroxyphenyl)-1-benzothiophene-7-carbaldehyde oxime] | 229.5 to 230.5 °C | – | –
2 | ON=Cc1ccc(-c2ccc(O)cc2)c2sccc12 [Example 19, 7-(4-Hydroxyphenyl)-1-benzothiophene-4-carbaldehyde oxime] | 230 to 231 °C | – | –
3 | ON=Cc1ccc(-c2ccc(O)cc2)c2ccccc12 [Example 3, 4-(4-Hydroxyphenyl)-1-naphthaldehyde oxime] | 200 to 200.5 °C | – | –
4 | ON=Cc1ccc(-c2ccc(O)c(F)c2)c2ccccc12 [Example 6, 4-(3-Fluoro-4-hydroxyphenyl)-naphthalene-1-carbaldehyde oxime] | 187 to 188 °C | – | –

The next lines start with the values.

Row | melting point | IC50 [1] | IC50 [2] | SMILES
5 | 216 to 217 °C | – | – | ON=Cc1ccc(-c2ccc(O)cc2)c2occc12 [Example 25, 7-(4-Hydroxyphenyl)-1-benzofuran-4-carbaldehyde oxime]
6 | 192 to 194 °C | > 5000 nM | 2210 nM | ON=Cc1cc(-c2ccc(O)cc2)c2occc2c1 [Example 43, 7-(4-Hydroxyphenyl)-benzofuran-5-carbaldehyde oxime]
7 | – | 3220 nM | 326 nM | ON=Cc1cc(-c2ccc(O)cc2)cc2ccoc12 [Example 37, 5-(4-Hydroxyphenyl)-1-benzofuran-7-carbaldehyde oxime]
8 | 219 to 220 °C | – | – | ON=Cc1ccc(-c2ccc(O)cc2)c2ccoc12 [Example 31, 4-(4-Hydroxyphenyl)-benzofuran-7-carbaldehyde oxime]
